According to ChEMBL document CHEMBL1130582, “Substrate specificity of thermostable farnesyl diphosphate synthase with alkyl group homologs of isopentenyl diphosphate” (1998):
Each block holds one compound with its values, some of them ahead of it.

Experiments:
[1] = system: Farnesyl diphosphate synthase (Sus scrofa); experiment: Relative yield of the product (4b') derived from the compound with GPP in the enzymatic reaction catalyzed by FPP synthase from porcine liver
[2] = system: Farnesyl diphosphate synthase (Aves); experiment: Relative yield of the product (4b') derived from the compound with GPP in the enzymatic reaction catalyzed by FPP synthase from avian liver
[3] = system: Farnesyl diphosphate synthase (Sus scrofa); experiment: Relative yield of the product (3b) derived from the compound with DMAPP in the enzymatic reaction catalyzed by FPP synthase from porcine liver; ND = Not detected
[4] = system: Farnesyl diphosphate synthase (Aves); experiment: Relative yield of the product (4b) derived from the compound with DMAPP in the enzymatic reaction catalyzed by FPP synthase from avian liver
[5] = molecular target: T1, Farnesyl diphosphate synthase (Geobacillus stearothermophilus) (UniProt Q08291); experiment: (§1) Relative yield of the product (3b) derived from the compound with DMAPP in the enzymatic reaction catalyzed by FPP synthase from Bacillus stearothermophilus; type: functional
T1 sequence (whole entry): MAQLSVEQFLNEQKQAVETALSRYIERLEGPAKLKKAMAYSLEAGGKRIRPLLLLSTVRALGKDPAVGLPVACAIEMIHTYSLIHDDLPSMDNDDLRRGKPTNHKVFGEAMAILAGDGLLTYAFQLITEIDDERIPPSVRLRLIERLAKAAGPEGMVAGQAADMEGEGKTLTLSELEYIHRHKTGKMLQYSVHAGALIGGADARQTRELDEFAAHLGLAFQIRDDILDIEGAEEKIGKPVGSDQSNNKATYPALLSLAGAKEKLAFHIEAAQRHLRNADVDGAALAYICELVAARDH

[6] = system: Farnesyl diphosphate synthase (Sus scrofa); experiment: Relative yield of the product (4b) derived from the compound with DMAPP in the enzymatic reaction catalyzed by FPP synthase from porcine liver
[7] = molecular target: T1, Farnesyl diphosphate synthase (Geobacillus stearothermophilus); experiment: Relative yield of the product (4b) derived from the compound with DMAPP in the enzymatic reaction catalyzed by FPP synthase from Bacillus stearothermophilus; type: functional
[8] = molecular target: T1, Farnesyl diphosphate synthase (Geobacillus stearothermophilus); experiment: Relative yield of the product (4b') derived from the compound with GPP in the enzymatic reaction catalyzed by FPP synthase from Bacillus stearothermophilus; type: functional
[9] = system: Farnesyl diphosphate synthase (Aves); experiment: Relative yield of the product (3b) derived from the compound with DMAPP in the enzymatic reaction catalyzed by FPP synthase from avian liver
Aves [10] = experiment: Relative yield of the product (3c) derived from the compound with DMAPP in the enzymatic reaction catalyzed by FPP synthase from avian liver; type: functional
Aves [11] = experiment: Relative yield of the product (4c) derived from the compound with GPP in the enzymatic reaction catalyzed by FPP synthase from avian liver; ND = Not detected; type: functional
Sus scrofa [12] = organism: Sus scrofa; experiment: Relative yield of the product (4c) derived from the compound with GPP in the enzymatic reaction catalyzed by FPP synthase from porcine liver; type: functional
[13] = system: Geobacillus stearothermophilus; experiment: Relative yield of the product (4c) derived from the compound with GPP in the enzymatic reaction catalyzed by FPP synthase from Bacillus stearothermophilus; type: functional
[14] = system: Geobacillus stearothermophilus; experiment: Relative yield of the product (3c) derived from the compound with DMAPP in the enzymatic reaction catalyzed by FPP synthase from Bacillus stearothermophilus; type: functional
Sus scrofa [15] = organism: Sus scrofa; experiment: Relative yield of the product (3c) derived from the compound with DMAPP in the enzymatic reaction catalyzed by FPP synthase from porcine liver; type: functional
[16] = system: Geobacillus stearothermophilus; experiment: as §1; type: functional
[17] = system: Geobacillus stearothermophilus; experiment: Relative yield of the product (4d) derived from the compound with GPP in the enzymatic reaction catalyzed by FPP synthase from B. stearothermophilus; ND = Not detected; type: functional
Sus scrofa [18] = organism: Sus scrofa; experiment: Relative yield of the product (3b) derived from the compound with DMAPP in the enzymatic reaction catalyzed by FPP synthase from porcine liver; ND = Not detected; type: functional, organism-based
Aves [19] = experiment: Relative yield of the product (4d) derived from the compound with DMAPP in the enzymatic reaction catalyzed by FPP synthase from avian liver; ND = Not detected; type: functional
Sus scrofa [20] = organism: Sus scrofa; experiment: Relative yield of the product (4d) derived from the compound with DMAPP in the enzymatic reaction catalyzed by FPP synthase from porcine liver; ND = Not detected; type: functional
Aves [21] = experiment: Relative yield of the product (3b) derived from the compound with DMAPP in the enzymatic reaction catalyzed by FPP synthase from avian liver; ND = Not detected; type: functional

Production [1]: 27%
Production [2]: 25%
Production [3]: Not detected
Production [4]: 6.7%
Production [5]: 68%
Production [6]: 10%
Production [7]: 40%
Production [8]: 48%
Production [9]: 1%
SMILES: C=C(CC)CCOP(=O)(O)OP(=O)(O)O

SMILES: C=C(CCC)CCOP(=O)(O)OP(=O)(O)O
Production (Aves [10]): 1%
Production (Aves [11]): Not detected
Production (Sus scrofa [12]): 1.8%
Production [13]: 10%
Production [14]: 29%
Production (Sus scrofa [15]): 1.4%

SMILES: C=C(CCCC)CCOP(=O)(O)OP(=O)(O)O
Production [16]: 4%
Production [17]: Not detected
Production (Sus scrofa [18]): Not detected
Production (Aves [19]): Not detected
Production (Sus scrofa [20]): Not detected
Production (Aves [21]): Not detected
